The values below come from patent US20130071927A1, “MEDIA AND METHODS FOR CELL CULTURE” (Sydney IVF Limited, priority 2010, published 2013).

Format in all cases: cell-based, human
The test system of data set [1] is hESC. As to the kind of experiment: Feeder layer-free monolayer hESC culture on collagen I with protectants/modulators. The conditions noted are these: for doubling time: collagen I coating + Y-27632 (10 μM), SIVF019 (FIG. 4). The protocol:
A single cell suspension was prepared similar to Example 4 by first washing a T25 flask with 5 ml PBS followed by trypsinising the cells with 2 ml 0.05% trypsin/5 mM EDTA, incubating at 37° C. for 10 mins and resuspending in 10 ml DMEM medium containing 10% FBS with vigorous pipetting. Cell number and viability was determined using the NucleoCounter and an appropriate number of cells centrifuged at 250×g for 4 mins prior to resuspension in conditioned KSR medium with 20 ng/ml bFGF plus additives. Conditioned KSR medium was produced by incubation of KSR medium on mitomycin-C treated human foetal fibroblasts for 48 hrs prior to harvest and storage at −20° C. As protectants/modulators the following additives were tested: • 1. 10 μM Y-27632 • 2. 20 μM OPH109 • 3. 2.5-10 μM blebbistatin • 4. 20 μM OPH109+2.5-10 μM blebbistatin
Cells were plated in collagen I (Cell Science and Technologies) coated 96 well optical bottom plates (BD) at a density of 2×10^4 cells/cm^2, and incubated at 37° C./5% CO2/5% O2. Media were changed on every 2nd day thereafter. […] This toxic effect could in turn be counteracted by using OPH109 in addition to blebbistatin. After 4-5 days in culture cells were fixed and immunofluorescence stained for the pluripotency markers Oct-3/4, SSEA-4 and Tra-1-81 as well as the early differentiation marker CD29. The cells were imaged and analysed using an IN Cell Analyzer 1000 and IN Cell Developer Toolbox 1.7 software. FIG. 3 summarises the results for 2 cell lines, indicating the ability of protectants/modulators to facilitate feeder-free monolayer culture of undifferentiated hESC. Next, the growth rate of monolayer hESC was assessed by imagining of Hoechst (Invitrogen) stained wells using the IN Cell Analyzer 1000 in 24 hr intervals. Cell number was determined by analysis using IN Cell Developer Toolbox 1.7 and IN Cell Analyzer 1000 Workstation 3.5 software. […] There was no significant difference in cell number or proliferation between uncoated and collagen I coated growth surfaces.

Data set [2] deals with hESC. In words: Expansion of single-cell dissociated hESC on feeder cells using protectants in the culture medium. As for the experimental part:
Organ culture dishes with various hESC lines (Table 1) were washed once with 1 ml PBS and then dislodged by adding ˜0.2 ml 0.05% trypsin/5 mM EDTA and incubating at 37° C. for 10 mins. After the incubation 1 ml DMEM medium containing 10% FBS was added to inhibit the trypsin, and a single cell suspension was obtained by vigorous pipetting. The cells were counted, pelleted by centrifugation at 250×g for 4 min and resuspended in 5 ml KSR medium containing 20 ng/ml bFGF and 20 μM OPH109, a potent, cell permeable inhibitor of several caspases. The cell suspension was then transferred to a T25 culture flask containing fresh, mitomycin C treated human embryonic fibroblast feeder layer cells and incubated at 37° C., 5% CO2 and 5% O2. The medium was changed after 2 days (and every 2 days thereafter) using KSR medium plus 4 ng/ml bFGF. […] Over the course of 8-10 days these colonies continued growing in size. In contrast, control cultures set up in the same way but without OPH109 in the initial culture medium only contained very few hESC colonies, in concordance with the reported poor viability of hESC after single cell dissociation.
After 8-10 days the cells were harvested by preparing a single cell suspension using trypsin/EDTA as described above. Table 3 list the numbers of cells obtained for various cell lines, indicating a 10-15 fold expansion in a single step. The cells could be used for subsequent experiments or further expansion by plating 10,000 cells/cm^2 into culture vessels with fresh feeder layer cells using KSR medium plus 20 ng/ml bFGF and 20 μM OPH109 as the initial culture medium.
In another experiment, single cell suspensions were prepared from hESC cells grown in organ culture dishes using trypsin/EDTA as described above. Cell were then resuspended in 5 ml KSR medium containing 20 ng/ml bFGF and 2.5 μM blebbistatin, a potent, cell permeable inhibitor of myosin II. The cell suspension was then transferred to a T25 culture flask containing fresh, mitomycin C treated human embryonic fibroblast feeder layer cells and incubated at 37° C., 5% CO2 and 5% O2. The medium was changed after 2 days (and every 2 days thereafter) using KSR medium plus 4 ng/ml bFGF. […] Colonies continued to grow in size and density over 8-10 days until the cultures were passaged again for cell counting (summarised in Table 4) and replating of 2,000-10,000 cells/cm^2 into culture vessels with fresh feeder layer cells using KSR medium plus 20 ng/ml bFGF and 2.5 μM blebbistatin as the initial culture medium. Using this method cells were expanded for >10 passages, while maintaining their pluripotency and normal karyotypes.

For data set [3], the system named is hESC. The description is as above. The conditions noted are these: Y27632 as protectant in the culture medium, on feeders.
The subject of the next data set is SIVF019 hESC. In words: Feeder free expansion of hESC using monolayer culture. The conditions noted are these: SIVF019 (collagenase passaged stock), within 9 days, 3 passages, 10 μM Y-27632 at plating, collagen I. As for the experimental part:
Manually passaged and collagenase passaged hESC lines (Table 1) grown on feeder cells were dissociated into single cells using 0.05% trypsin/5 mM EDTA as described in Example 5. Cells were plated into a collagen I coated plates at ˜2×10^4/cm^2 in Conditioned KSR medium with 20 ng/ml bFGF and 10 μM Y-27632, and incubated at 37° C./5% CO2/5% O2 (passage 1). The medium was changed the following day, then every 2nd day until cells reached ˜80% confluency. Cells were then dissociated into single cells using the 0.05% trypsin/5 mM EDTA protocol, with the exception of incubation with 0.05% trypsin/5 mM EDTA for 3 mins only, counted and plated at ˜2×10^4/cm^2 in the above described medium (passage 2). This process was repeated when cells reached confluency (passage 3). At each of the 3 passages, some of the dissociated cells were plated into 96 well plates for pluripotency assessment as described in Example 6. Within 9 days, the theoretical cell number obtained for SIVF019 (collagenase passaged stock) was 24 fold that originally plated (FIG. 6A). Manually passaged hESC SIVF002, SIVF006 and SIVF021 could also be successfully expanded as a monolayer (FIG. 6B).

As to `CC(C)[C@H](NC(=O)c1ccc2ccccc2n1)C(=O)N[C@@H](CC(=O)O)C(=O)COc1c(F)cccc1F` [OPH109, Quinoline-Val-Asp-Difluorophenoxymethylketone], in the data set on hESC [1] (20 μM OPH109 by itself, collagen I coated 96 well plates), the “cell morphology in feeder-free culture” value is “changed to larger cytoplasm/nuclear ratios indicating cell differentiation”. For the same molecule, the “number of passages cell lines were maintained (typical morphology, pluripotency markers, stable karyotype kept)” value in the data set on hESC [2] (20 μM OPH109 in initial culture medium, 10,000 cells/cm^2) is on record as greater than 10 passages. Moreover, in the data set with hESC [2] (20 μM OPH109 in initial culture medium, >10 passages), the expansion per passage is listed as 10-15 fold. Besides, the “random images (10x objective) in which colonies were observed” value in the data set with hESC [2] (20 μM OPH109 in initial culture medium, control without OPH109 1 out of 10) was 6 out of the 10. The “Viable cells after 1 expansion step” value in the data set with hESC [2] (SIVF006, 20 μM OPH109, from 1.23 × 10^5 cells in organ culture dish to T25 flask, 8-10 days) is 1.97 × 10^6 cells; in the data set with hESC [2] (SIVF019, 20 μM OPH109, starting cells not determined, T25 flask, 8-10 days) it was 3.1 × 10^6 cells; in the data set with hESC [2] (SIVF021, 20 μM OPH109, from 2.19 × 10^5 cells in organ culture dish to T25 flask, 8-10 days), 3.00 × 10^6 cells; with hESC [2] (SIVF022, 20 μM OPH109, from 3.99 × 10^5 cells in organ culture dish to T25 flask, 8-10 days), 4.40 × 10^6 cells. In addition, the “expansion in a single step” value in the data set on hESC [2] (various cell lines, 20 μM OPH109, 8-10 days) is on record as 10-15 fold.

`C[C@@H](N)[C@H]1CC[C@H](C(=O)Nc2ccncc2)CC1` [Y-27632]: the doubling time with hESC [1] (between 24 hrs and 48 hrs post-plating) was 11 h; in the data set with hESC [1] (between 48 hrs and 72 hrs post-plating) it was 17 h. The “morphology of the colonies” value in the data set with hESC [3] was “flat monolayers of small cells with high nuclear to cytoplasmic ratios”. The “cell viability after dissociation into single cell suspensions” value in the data set on hESC [2] (Y27632 as protectant in the culture medium, on feeders) was “dramatically increased cell viability”. Besides, the “theoretical cell number relative to that originally plated” value in the data set on SIVF019 hESC amounted to 24 fold.

As to `Cc1ccc2c(c1)C(=O)C1(O)CCN(c3ccccc3)C1=N2` (stereo not drawn) [blebbistatin], in the data set on hESC [1] (blebbistatin 2.5-10 μM, feeder-free on collagen I), the toxicity result was “increased toxicity at higher concentrations”. In the data set with hESC [1] (tested 2.5-10 μM, feeder-free on collagen I), the “concentration at which most potent as protectant/modulator” value is 2.5 µM. The “number of passages cells were expanded (pluripotency and normal karyotypes maintained)” value in the data set with hESC [2] (2.5 μM blebbistatin in initial culture medium, 2,000-10,000 cells/cm^2) was greater than 10 passages. The “Viable cells after 1 expansion step” value was 1.5 × 10^6 cells in the data set on hESC [2] (SIVF002, 2.5 μM blebbistatin, from 5.7 × 10^4 cells in organ culture dish to T25 flask); 3.4 × 10^6 cells in the data set with hESC [2] (SIVF019 Exp 1, 2.5 μM blebbistatin, from 6.6 × 10^4 cells in organ culture dish); 2.4 × 10^6 cells with hESC [2] (SIVF019 Exp 2, 2.5 μM blebbistatin, from 2.5 × 10^5 cells in organ culture dish); 3.4 × 10^6 cells in the data set with hESC [2] (SIVF019 Exp 3, 2.5 μM blebbistatin, from 2.5 × 10^5 cells in organ culture dish); 1.6 × 10^6 cells with hESC [2] (SIVF024, 2.5 μM blebbistatin, from 2.6 × 10^5 cells in organ culture dish); 2.0 × 10^6 cells in the data set on hESC [2] (SIVF048, 2.5 μM blebbistatin, from 2.3 × 10^5 cells in organ culture dish). Also, the “protectant strength compared with OPH109” value in the data set on hESC [2] (allows lower initial plating densities and greater expansion) is listed as “more powerful protectant than OPH109”.
